# Laboratory results: patent publication US10016382B2, “Method for decreasing skeletal muscle damage and/or oxidative stress in mammals” (LONZA INC., priority 2014, dated 2018)
# What was measured:
# Labrador Retrievers = assay: Heart rate and body temperature recovery following 15 mile run, Example 2 part one; format: in vivo, dog; conditions: for Temperature After Run: in °F (unit assumed)
# Method: Each performance dog wore the Actical activity monitor and GPS tracking collar during the last 15 mile endurance run. The final run was conducted in a manner analogous to that of Example 1. All activity was accurately and precisely calculated using the GPS tracking monitors. Immediately following the 15 mile endurance run, each dog was placed in a kennel and evaluated for recovery time in body temperature (every 15 minutes for 2 hours) and heart rate (every 2 minutes for up to 20 minutes until basal beats per minute (BPM) was reached). Body temperature and heart rate were measured as described in Example 1.
# [1] = Body composition by DEXA scan, Example 2 part one; format: in vivo, dog; conditions: for Lean mass (LM) change / Total tissue mass change: over 14 week study
# Description: Each dog was also scanned for body composition as described in Example 1 just prior to the beginning of the study and twenty-four hours following the final endurance run.
# [2] = Ex.2 part one, 250 mg/d, both sexes
# [3] = Ex.2 part one, 250 mg/d, females
compound,measurement,setting,value
C[N+](C)(C)C[C@H](O)CC(=O)[O-] [L-carnitine],Heartrate after run,"Labrador Retrievers; Ex.2 part one, 250 mg/d, 4 minutes post final run, both sexes",156.15 BPM
same,Heartrate after run,"Labrador Retrievers; Ex.2 part one, 250 mg/d, 4 minutes post final run, males",160 BPM
same,Heartrate after run,"Labrador Retrievers; Ex.2 part one, 250 mg/d, immediately following 15 mile run, both sexes",184.23 BPM
same,Return to basal temperature vs control (regression model),"Labrador Retrievers; Ex.2 part one, 250 mg/d, males and females, FIGS. 5A, 5B",reached basal temperatures faster
same,Return to basal heart rate vs control (regression model),"Labrador Retrievers; Ex.2 part one, 250 mg/d, overall group, males and females, FIGS. 4A, 4B",reached basal heart rate faster
same,Temperature After Run,"Labrador Retrievers; Females, Temp - 0 min after 15 mile run",105.16 ± 0.35
same,Temperature After Run,"Labrador Retrievers; Females, Temp - 15 min after 15 mile run",102.69 ± 0.24
same,Temperature After Run,"Labrador Retrievers; Females, Temp - 30 min after 15 mile run",101.31 ± 0.2
same,Temperature After Run,"Labrador Retrievers; Females, Temp - 45 min after 15 mile run",101.16 ± 0.2
same,Temperature After Run,"Labrador Retrievers; Females, Temp - 60 min after 15 mile run",101.14 ± 0.2
same,Heartrate After Run,"Labrador Retrievers; Females, Time - 0 min after 15 mile run",180.83 ± 3.36 BPM
same,Heartrate After Run,"Labrador Retrievers; Females, Time - 2 min after 15 mile run",165 ± 6.09 BPM
same,Heartrate After Run,"Labrador Retrievers; Females, Time - 4 min after 15 mile run",152.31 ± 6.71 BPM
same,Heartrate After Run,"Labrador Retrievers; Females, Time - 6 min after 15 mile run",149.17 ± 6.21 BPM
same,Heartrate After Run,"Labrador Retrievers; Females, Time - 8 min after 15 mile run",135 ± 6.34 BPM
same,Heartrate After Run,"Labrador Retrievers; Females, Time - 10 min after 15 mile run",117.9 ± 7.45 BPM
same,Heartrate After Run,"Labrador Retrievers; Females, Time - 12 min after 15 mile run",113.08 ± 8.5 BPM
same,Heartrate After Run,"Labrador Retrievers; Females, Time - 14 min after 15 mile run",107.27 ± 8.95 BPM
same,Heartrate After Run,"Labrador Retrievers; Females, Time - 16 min after 15 mile run",78.57 ± 5.73 BPM
same,Heartrate After Run,"Labrador Retrievers; Females, Time - 18 min after 15 mile run",77.86 ± 5.47 BPM
same,Heartrate After Run,"Labrador Retrievers; Females, Time - 20 min after 15 mile run",77.14 ± 5.29 BPM
same,Temperature After Run,"Labrador Retrievers; Males, Temp - 0 min after 15 mile run",105.79 ± 0.36
same,Temperature After Run,"Labrador Retrievers; Males, Temp - 15 min after 15 mile run",102.39 ± 0.4
same,Temperature After Run,"Labrador Retrievers; Males, Temp - 30 min after 15 mile run",100.94 ± 0.23
same,Temperature After Run,"Labrador Retrievers; Males, Temp - 45 min after 15 mile run",100.87 ± 0.19
same,Temperature After Run,"Labrador Retrievers; Males, Temp - 60 min after 15 mile run",100.87 ± 0.19
same,Heartrate After Run,"Labrador Retrievers; Males, Time - 0 min after 15 mile run",187.14 ± 3.54 BPM
same,Heartrate After Run,"Labrador Retrievers; Males, Time - 2 min after 15 mile run",172.14 ± 3.81 BPM
same,Heartrate After Run,"Labrador Retrievers; Males, Time - 4 min after 15 mile run",160 ± 4.94 BPM
same,Heartrate After Run,"Labrador Retrievers; Males, Time - 6 min after 15 mile run",142.86 ± 5.59 BPM
same,Heartrate After Run,"Labrador Retrievers; Males, Time - 8 min after 15 mile run",129.29 ± 5.29 BPM
same,Heartrate After Run,"Labrador Retrievers; Males, Time - 10 min after 15 mile run",122.86 ± 3.7 BPM
same,Heartrate After Run,"Labrador Retrievers; Males, Time - 12 min after 15 mile run",108.57 ± 3.76 BPM
same,Heartrate After Run,"Labrador Retrievers; Males, Time - 14 min after 15 mile run",95 ± 3.1 BPM
same,Heartrate After Run,"Labrador Retrievers; Males, Time - 16 min after 15 mile run",92.14 ± 3 BPM
same,Heartrate After Run,"Labrador Retrievers; Males, Time - 18 min after 15 mile run",89.29 ± 2.21 BPM
same,Heartrate After Run,"Labrador Retrievers; Males, Time - 20 min after 15 mile run",89.29 ± 2.21 BPM
same,Temperature After Run,"Labrador Retrievers; Whole Groups, Temp - 0 min after 15 mile run",105.48 ± 0.25
same,Temperature After Run,"Labrador Retrievers; Whole Groups, Temp - 15 min after 15 mile run",102.54 ± 0.23
same,Temperature After Run,"Labrador Retrievers; Whole Groups, Temp - 30 min after 15 mile run",101.12 ± 0.15
same,Temperature After Run,"Labrador Retrievers; Whole Groups, Temp - 45 min after 15 mile run",101.01 ± 0.14
same,Temperature After Run,"Labrador Retrievers; Whole Groups, Temp - 60 min after 15 mile run",101.01 ± 0.14
same,Heartrate After Run,"Labrador Retrievers; Whole Groups, Time - 0 min after 15 mile run",184.23 ± 2.49 BPM
same,Heartrate After Run,"Labrador Retrievers; Whole Groups, Time - 2 min after 15 mile run",168.85 ± 3.48 BPM
same,Heartrate After Run,"Labrador Retrievers; Whole Groups, Time - 4 min after 15 mile run",156.15 ± 4.15 BPM
same,Heartrate After Run,"Labrador Retrievers; Whole Groups, Time - 6 min after 15 mile run",145.77 ± 4.12 BPM
same,Heartrate After Run,"Labrador Retrievers; Whole Groups, Time - 8 min after 15 mile run",131.92 ± 4.04 BPM
same,Heartrate After Run,"Labrador Retrievers; Whole Groups, Time - 10 min after 15 mile run",120.79 ± 3.72 BPM
same,Heartrate After Run,"Labrador Retrievers; Whole Groups, Time - 12 min after 15 mile run",110.74 ± 4.46 BPM
same,Heartrate After Run,"Labrador Retrievers; Whole Groups, Time - 14 min after 15 mile run",100.4 ± 4.38 BPM
same,Heartrate After Run,"Labrador Retrievers; Whole Groups, Time - 16 min after 15 mile run",85.36 ± 3.43 BPM
same,Heartrate After Run,"Labrador Retrievers; Whole Groups, Time - 18 min after 15 mile run",83.57 ± 3.1 BPM
same,Heartrate After Run,"Labrador Retrievers; Whole Groups, Time - 20 min after 15 mile run",83.21 ± 3.05 BPM
same,Increase in % fat mass,"[1]; Ex.2 part one, 250 mg/d, females, vs 3.01% control females (p=0.3893)",1.58%
same,Lean mass (LM) change,[1]; [2],0.68 kg
same,Total tissue mass change,[1]; [2],0.74 kg
same,Lean mass (LM) change,[1]; [3],0.45 kg
same,Total tissue mass change,[1]; [3],0.78 kg
same,Lean mass (LM) change,"[1]; Ex.2 part one, 250 mg/d, males",0.91 kg
same,Total tissue mass change,"[1]; Ex.2 part one, 250 mg/d, males",0.70 kg
same,% Fat,"[1]; Female, Change",1.58 ± 1.29%
same,BMC,"[1]; Female, Change",9.54 ± 6.72 g
same,BMD,"[1]; Female, Change",0.0029 ± 0.005 g/cm2
same,Fat,"[1]; Female, Change",0.56 ± 0.35 kg
same,Lean Mass,"[1]; Female, Change",0.45 ± 0.21 kg
same,Total Tissue,"[1]; Female, Change",0.78 ± 0.27 kg
same,% Fat,"[1]; Female, Final",18.43 ± 1.75%
same,BMC,"[1]; Female, Final",716.5 ± 30.63 g
same,BMD,"[1]; Female, Final",0.58 ± 0.01 g/cm2
same,Fat,"[1]; Female, Final",4.62 ± 0.57 kg
same,Lean Mass,"[1]; Female, Final",19.95 ± 0.65 kg
same,Total Tissue,"[1]; Female, Final",24.34 ± 0.94 kg
same,% Fat,"[1]; Female, Initial",16.85 ± 2.1%
same,BMC,"[1]; Female, Initial",706.96 ± 30.19 g
same,BMD,"[1]; Female, Initial",0.58 ± 0.01 g/cm2
same,Fat,"[1]; Female, Initial",4.07 ± 0.59 kg
same,Lean Mass,"[1]; Female, Initial",19.49 ± 0.69 kg
same,Total Tissue,"[1]; Female, Initial",23.56 ± 0.86 kg
same,% Fat,"[1]; Male, Change",0.49 ± 0.61%
same,BMC,"[1]; Male, Change",6.54 ± 6.57 g
same,BMD,"[1]; Male, Change",0.011 ± 0.005 g/cm2
same,Fat,"[1]; Male, Change",0.22 ± 0.2 kg
same,Lean Mass,"[1]; Male, Change",0.91 ± 0.22 kg
same,Total Tissue,"[1]; Male, Change",0.7 ± 0.19 kg
same,% Fat,"[1]; Male, Final",14.81 ± 1.05%
same,BMC,"[1]; Male, Final",927.39 ± 25.32 g
same,BMD,"[1]; Male, Final",0.65 ± 0.01 g/cm2
same,Fat,"[1]; Male, Final",4.56 ± 0.36 kg
same,Lean Mass,"[1]; Male, Final",26.54 ± 0.71 kg
same,Total Tissue,"[1]; Male, Final",30.67 ± 0.72 kg
same,% Fat,"[1]; Male, Initial",14.31 ± 1.16%
same,BMC,"[1]; Male, Initial",920.86 ± 25.96 g
same,BMD,"[1]; Male, Initial",0.64 ± 0.01 g/cm2
same,Fat,"[1]; Male, Initial",4.34 ± 0.42 kg
same,Lean Mass,"[1]; Male, Initial",25.63 ± 0.58 kg
same,Total Tissue,"[1]; Male, Initial",29.97 ± 0.75 kg
same,% Fat,"[1]; all dogs, Change",1.04 ± 0.71%
same,BMC,"[1]; all dogs, Change",8.04 ± 4.62 g
same,BMD,"[1]; all dogs, Change",0.007 ± 0.003 g/cm2
same,Fat,"[1]; all dogs, Change",0.39 ± 0.2 kg
same,Lean Mass,"[1]; all dogs, Change",0.68 ± 0.16 kg
same,Total Tissue,"[1]; all dogs, Change",0.74 ± 0.16 kg
same,% Fat,"[1]; all dogs, Final",16.62 ± 1.06%
same,BMC,"[1]; all dogs, Final",821.95 ± 28.14 g
same,BMD,"[1]; all dogs, Final",0.61 ± 0.01 g/cm2
same,Fat,"[1]; all dogs, Final",4.59 ± 0.33 kg
same,Lean Mass,"[1]; all dogs, Final",23.24 ± 0.79 kg
same,Total Tissue,"[1]; all dogs, Final",27.5 ± 0.84 kg
same,% Fat,"[1]; all dogs, Initial",15.58 ± 1.2%
same,BMC,"[1]; all dogs, Initial",813.91 ± 28.38 g
same,BMD,"[1]; all dogs, Initial",0.608 ± 0.01 g/cm2
same,Fat,"[1]; all dogs, Initial",4.2 ± 0.35 kg
same,Lean Mass,"[1]; all dogs, Initial",22.56 ± 0.74 kg
same,Total Tissue,"[1]; all dogs, Initial",26.76 ± 0.83 kg
